Assay results published in US11059815B2, “Synthesis of small molecule histone deacetylase 6 degraders, compounds formed thereby, and pharmaceutical compositions containing them” (Wisconsin Alumni Research Foundation, priority 2018, dated 2021).

Target: T1, HDAC6 (Homo sapiens, UniProt Q9UBN7)
T1 construct: endogenous in cells; host or cells: MM1S (ATCC CRL-2974)
T1 sequence (Q9UBN7 1-1215): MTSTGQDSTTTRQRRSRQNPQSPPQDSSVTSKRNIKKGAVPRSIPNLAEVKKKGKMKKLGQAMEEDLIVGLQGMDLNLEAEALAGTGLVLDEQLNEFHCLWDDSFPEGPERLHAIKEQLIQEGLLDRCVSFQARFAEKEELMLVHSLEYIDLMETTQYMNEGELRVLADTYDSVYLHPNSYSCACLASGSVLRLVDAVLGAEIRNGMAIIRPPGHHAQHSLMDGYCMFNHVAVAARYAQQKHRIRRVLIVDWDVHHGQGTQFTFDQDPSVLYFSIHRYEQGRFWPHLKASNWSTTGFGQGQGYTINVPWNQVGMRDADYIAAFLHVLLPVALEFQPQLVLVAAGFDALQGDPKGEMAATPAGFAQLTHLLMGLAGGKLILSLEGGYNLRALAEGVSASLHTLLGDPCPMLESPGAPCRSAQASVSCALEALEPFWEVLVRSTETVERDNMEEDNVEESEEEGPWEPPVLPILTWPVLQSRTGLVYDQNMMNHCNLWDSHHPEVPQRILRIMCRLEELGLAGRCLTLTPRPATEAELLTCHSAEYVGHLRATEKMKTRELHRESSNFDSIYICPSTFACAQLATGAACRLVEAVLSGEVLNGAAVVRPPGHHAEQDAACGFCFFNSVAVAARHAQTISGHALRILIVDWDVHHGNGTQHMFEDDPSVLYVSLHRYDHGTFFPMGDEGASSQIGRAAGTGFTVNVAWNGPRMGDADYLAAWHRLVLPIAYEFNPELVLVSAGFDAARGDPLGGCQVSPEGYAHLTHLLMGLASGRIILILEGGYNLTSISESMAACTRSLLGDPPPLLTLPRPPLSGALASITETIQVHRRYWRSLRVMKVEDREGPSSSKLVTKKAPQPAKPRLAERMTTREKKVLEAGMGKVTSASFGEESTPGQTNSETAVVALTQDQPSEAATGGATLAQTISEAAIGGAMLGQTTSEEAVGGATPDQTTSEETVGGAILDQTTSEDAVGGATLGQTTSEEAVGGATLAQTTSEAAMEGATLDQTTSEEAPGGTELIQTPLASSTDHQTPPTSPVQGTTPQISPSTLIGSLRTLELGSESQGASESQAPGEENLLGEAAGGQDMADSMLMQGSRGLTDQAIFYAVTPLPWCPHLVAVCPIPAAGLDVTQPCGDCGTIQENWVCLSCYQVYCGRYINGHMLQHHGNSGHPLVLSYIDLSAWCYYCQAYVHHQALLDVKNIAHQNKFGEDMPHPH
Experiment: In-cell ELISA of HDAC6 protein level in MM1S cells
Assay type: cell-based
Conditions: 6 h; for DC50 / Dmax: 0.1 nM to 1 μM, nonlinear fit, ± SD; for Dmax / inhibition at 0.01 µM / inhibition at 0.1 µM: MM1.S; for Dmax: read-out: Dmax (Vehicle %); for inhibition at 0.01 µM: n=3, read-out: Degradation (%) 10 nM; for inhibition at 0.1 µM: n=3, read-out: Degradation (%) 100 nM
Experimental: FIG. 9 is a histogram depicting the results of screening of compounds for HDAC6 degradation activity by in-cell ELISA. MM1S cells were treated with compounds at 100 nM (blue bars) or 10 nM (red bars) for 6 h. Data was normalized to vehicle (DMSO)-treated group and the bar graph represents as mean of relative HDAC6 protein level (n=3) with ±SD as error bar. Statistical significance was analyzed by one-way ANOVA. Not significant (ns) P>0.05, *P≤0.05, **P≤0.01, ***P≤0.001, ****P≤0.0001.
FIG. 11 is a graph depicting dose response of selected degrader candidates. MM1S cells were treated for 6 h and analyzed by in-cell ELISA. Data was normalized to vehicle (DMSO)-treated group and dot plot represented as mean relative expression (n=3) with ±SD as error bar. Nonlinear fitting of inhibitor concentration vs. response (three parameters) was generated by GraphPad Prism with R2 from 0.97 to 0.99.
FIG. 15 is a histogram depicting relative HDAC6 expression as a function of linker length for compounds 3a through 3k as described in the Examples section, Part 2. Human MM1S cells were treated with 100 nM degraders for 6 hours and analyzed by in-cell ELISA assay.
FIG. 17 is a dose-response curve for degraders 3j (n=1), 3k (n=12) and 2, at concentrations from 1 nM to 300 nM for 4 h in MM1S. See the Examples, Part 2.
To screen the new series of degraders, an in-cell ELISA assay was developed and validated. The compounds were treated at 100 nM and 10 nM in MM1S cells for 6 h. Resulting cells were then fixed and analyzed by in-cell ELISA. […] Degraders including 1 at 100 nM degraded 73.5% to 85.0% of HDAC6 with minor difference. At 10 nM concentration of compounds, obvious structure-activity-relationship (SAR) was observed. […] For example, 12d, 12h, 12i, 12o and 12p all achieved about 70% degradation. Among the C4-linked series, 12d with medium length linker (5+1) achieved most degradation in sub-series 12a-e (m=1). […] Among C5-linked series, the potency of sub-series 12l-p (m=1) increased with the linker length. […] It appeared that both the distance and linking positions contributed to the degradation efficiency. The rigid triazole ring in the middle of the linker likely modulated the plasticity of degrader-bridged ternary complex.
The amount of cellular HDAC6 was measured in response to concentrations of compounds from 0.1 nM to 1 μM. […] The new degraders had single-digit nanomolar DC50, which was about 3 to 5 fold of improvement from 9.12 nM of degrader 1. […] As discussed above, most PROTACs were designed to avoid degrading other proteins except the targeted POIs. However, in these studies, it was hypothesized that HDAC6 degraders with IKZF degradation will have enhanced anti-proliferation effect MM1S cells.
MM1S cells were harvested and plated with 5×10^5 cells in 100 μL media per well 96-wells plate. After overnight seeding, 25 μL media containing 5× dosing concentration of the compounds or vehicle was added to each well. After 6-hour treatment at 37° C. in a humidified 5% CO2 atmosphere, cells were fixed by adding 125 μL 8% formaldehyde in TBS buffer (137 mM NaCl, 25 mM Tris, 2.7 mM potassium chloride, pH 7.6) and incubated at room temperature (RT) for 15 minutes. Removal of fixing solution was followed by once rinse and twice washes with TBS-T washing buffer (137 mM NaCl, 20 mM Tris, 0.1% Tween, pH 7.6). Cells were then permeabilized by adding 100 μL 0.1% Triton-X in TBS and incubated at RT for 15 minutes. Removal of permeabilizing solution was followed by once rinse and once wash with TBS-T. Cellular endogenous peroxidases were quenched by adding 100 μL 1% H2O2 in TBS and incubation at RT for 20 minutes. Removal of quenching solution was followed by once rinse and once wash with TBS-T. Non-specific binding sites were blocked by adding […] 5% BSA in TBS-T (with 0.02% NaN3) and incubation at 4° C. overnight. […]

[1] = 10 nM, 100% minus mean (± SD) relative HDAC6 expression
[2] = 100 nM, 100% minus mean (± SD) relative HDAC6 expression

| SMILES | DC50 [nM] | Degradation (%) 10 nM (10 nM, 100% minus mean (± SD) relative HDAC6 expression, n=3) [%] | Dmax [%] | inhibition at 0.01 µM [1] [%] | inhibition at 0.1 µM [2] [%] | effect on expression of HDAC6 compared with vehicle (10 nM) | effect on expression of HDAC6 compared with vehicle (100 nM) |
| --- | --- | --- | --- | --- | --- | --- | --- |
| O=C(CCCCCCC(=O)N/N=C/c1ccc(OCCOCCOCCn2cc(CNc3cccc4c3C(=O)N(C3CCC(=O)NC3=O)C4=O)nn2)cc1)NO (stereo not drawn) [Compound 1] | 9.12 | 47.9 ± 0.9 | 84.1 ± 2.41 | 47.9 | 73.5 ± 0.3 |  |  |
| CCCCN(Cc1ccc(C(=O)NO)cc1)C(=O)Nc1ccc(OCCCCCn2cc(CNc3cccc4c3C(=O)N(C3CCC(=O)NC3=O)C4=O)nn2)cc1 (stereo not drawn) [Compound 12d, 4-((1-butyl-3-(4-((5-(4-(((2-(2,6-dioxopiperidin-3-yl)-1,3-dioxoisoindolin-4-yl)amino)methyl)-1H-1,2,3-triazol-1-yl)pentyl)oxy)phenyl)ureido)methyl)-N-hydroxybenzamide] | 1.64 |  | 86.3 ± 1.7 | ~70 | 82.7 ± 1.7 |  |  |
| CCCCN(Cc1ccc(C(=O)NO)cc1)C(=O)Nc1ccc(OCCCn2cc(CNc3ccc4c(c3)C(=O)N(C3CCC(=O)NC3=O)C4=O)nn2)cc1 (stereo not drawn) [Compound 12m, 4-((1-butyl-3-(4-(3-(4-(((2-(2,6-dioxopiperidin-3-yl)-1,3-dioxoisoindolin-5-yl)amino)methyl)-1H-1,2,3-triazol-1-yl)propoxy)phenyl)ureido)methyl)-N-hydroxybenzamide] |  |  |  | 60.3 ± 1.3 | 81.2 ± 0.6 |  |  |
| CCCCN(Cc1ccc(C(=O)NO)cc1)C(=O)Nc1ccccc1 [Next-A, 4-[[butyl[(phenylamino)carbonyl]amino]methyl]-N-hydroxy-benzamide, reference compound] |  |  |  |  |  | didn't affect | very minimal effects |
| Nc1cccc2c1C(=O)N(C1CCC(=O)NC1=O)C2=O (stereo not drawn) [Pomalidomide, reference compound] |  |  |  |  |  | didn't affect | very minimal effects |
